Experimental data: patent US20210380548A1, “Fused [1,2,4]Thiadiazine Derivatives Which Act as KAT Inhibitors of the MYST Family” (CTxT Pty Limited, priority 2017, published 2021)

Assays:
HBO-KAT7 [1] = target: T1, HBO-KAT7 (Homo sapiens, UniProt O95251); assay: Revised Acetyltransferase Biochemical Assay, KAT7; details: Table 9 (HBO-KAT7), 1 μM Acetyl coenzyme A
T1 construct: encoding amino acid residues 325 to 611 (Uniprot 095251-1) of human KAT7; made in house; host or cells: E. coli BL21 DE3 RIL

MOF-KAT8 [2] = target: T2, MOF-KAT8 (Homo sapiens, UniProt Q9H7Z6); assay: Revised Acetyltransferase Biochemical Assay, KAT8
T2 sequence (Q9H7Z6 177-447): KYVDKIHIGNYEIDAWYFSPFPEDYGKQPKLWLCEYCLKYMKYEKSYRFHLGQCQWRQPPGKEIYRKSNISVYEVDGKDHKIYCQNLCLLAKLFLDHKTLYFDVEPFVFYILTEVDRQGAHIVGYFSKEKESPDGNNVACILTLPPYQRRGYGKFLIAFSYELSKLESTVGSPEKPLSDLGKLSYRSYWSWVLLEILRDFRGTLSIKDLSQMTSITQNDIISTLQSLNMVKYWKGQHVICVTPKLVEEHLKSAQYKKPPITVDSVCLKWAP

MOZ-KAT6A [3] = target: T3, MOZ-KAT6A (Homo sapiens, UniProt Q92794, A567V); assay: Revised Acetyltransferase Biochemical Assay, KAT6A; details: Table 8 (MOZ-KAT6A), 1 μM Acetyl coenzyme A
T3 construct: encoding amino acid residues 507 to 778 (Uniprot Q92794-1) of human KAT6A; made in house; host or cells: E. coli BL21 DE3

TIP60-KAT5 [4] = target: T4, TIP60-KAT5 (Homo sapiens, UniProt Q92993); assay: Revised Acetyltransferase Biochemical Assay, KAT5; details: 10 nM KAT5, 1 μM AcCoA, 100 nM histone H4, 90 min
T4 construct: encoding amino acid residues 2 to 461 (Uniprot Q92993-2) of human KAT5 isoform; made in house; host or cells: E. coli BL21 DE3

MOZ-KAT6A [5] = target: T3, MOZ-KAT6A; assay: Acetyltransferase biochemical assay (AlphaScreen), KAT6A; details: Table 2 (MOZ-KAT6A); 10 μM Acetyl coenzyme A, histone H3.1, 5 nM enzyme
TIP60-KAT5 [6] = target: T4, TIP60-KAT5; assay: Acetyltransferase biochemical assay (AlphaScreen), KAT5; details: Table 1 (TIP60-KAT5); 0.4 μM Acetyl coenzyme A, histone H4, 10 nM enzyme
HBO-KAT7 [7] = target: T1, HBO-KAT7; assay: Acetyltransferase biochemical assay (AlphaScreen), KAT7; details: Table 3 (HBO-KAT7); 0.4 μM Acetyl coenzyme A, histone H3.1, 40 nM enzyme
MOF-KAT8 [8] = target: T2, MOF-KAT8; assay: Acetyltransferase biochemical assay (AlphaScreen), KAT8; details: Table 4 (MOF-KAT8); 0.4 μM Acetyl coenzyme A, histone H4, 20 nM enzyme

T4 sequence (Q92993 2-461 isoform Q92993-2): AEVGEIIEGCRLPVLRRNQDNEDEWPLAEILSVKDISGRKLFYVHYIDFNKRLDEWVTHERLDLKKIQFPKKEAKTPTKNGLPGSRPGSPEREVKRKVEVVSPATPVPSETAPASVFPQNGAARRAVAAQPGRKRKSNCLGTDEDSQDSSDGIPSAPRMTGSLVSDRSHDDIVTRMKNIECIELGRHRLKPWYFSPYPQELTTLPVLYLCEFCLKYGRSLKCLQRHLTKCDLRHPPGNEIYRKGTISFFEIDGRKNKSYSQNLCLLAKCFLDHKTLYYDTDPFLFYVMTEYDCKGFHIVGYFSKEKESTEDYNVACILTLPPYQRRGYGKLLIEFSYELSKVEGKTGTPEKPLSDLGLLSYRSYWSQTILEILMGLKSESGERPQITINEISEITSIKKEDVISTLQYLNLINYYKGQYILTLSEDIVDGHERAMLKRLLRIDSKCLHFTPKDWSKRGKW
T3 sequence (Q92794 507-778 A567V limits assumed): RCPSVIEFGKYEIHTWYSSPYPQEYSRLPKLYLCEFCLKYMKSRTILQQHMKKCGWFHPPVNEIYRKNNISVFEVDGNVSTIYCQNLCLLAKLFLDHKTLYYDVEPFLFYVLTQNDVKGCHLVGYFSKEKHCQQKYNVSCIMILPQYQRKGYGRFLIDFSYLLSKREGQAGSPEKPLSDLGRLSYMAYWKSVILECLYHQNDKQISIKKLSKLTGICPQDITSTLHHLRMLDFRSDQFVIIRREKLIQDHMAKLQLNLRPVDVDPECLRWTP
T1 sequence (O95251 with tags, fused parts or gaps): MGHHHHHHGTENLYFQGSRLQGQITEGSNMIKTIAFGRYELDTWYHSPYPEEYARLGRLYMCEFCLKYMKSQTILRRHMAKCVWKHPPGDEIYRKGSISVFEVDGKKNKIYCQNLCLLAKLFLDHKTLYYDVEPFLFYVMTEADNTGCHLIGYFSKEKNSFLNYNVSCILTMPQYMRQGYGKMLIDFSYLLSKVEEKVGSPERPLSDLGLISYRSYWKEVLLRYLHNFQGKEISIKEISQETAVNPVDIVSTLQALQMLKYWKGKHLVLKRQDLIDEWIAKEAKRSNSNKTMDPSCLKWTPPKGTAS

| SMILES | IC50 (HBO-KAT7 [1]) | IC50 (MOF-KAT8 [2]) | IC50 (MOZ-KAT6A [3]) | IC50 (TIP60-KAT5 [4]) | IC50 (MOZ-KAT6A [5]) | IC50 (TIP60-KAT5 [6]) | IC50 (HBO-KAT7 [7]) | IC50 (MOF-KAT8 [8]) |
| --- | --- | --- | --- | --- | --- | --- | --- | --- |
| COc1ccc2c(c1)S(=O)(=O)NC(C(=O)NCC(c1ccccc1)c1ccccc1)=N2 [Example 19, N-(2,2-diphenylethyl)-7-methoxy-2H-benzo[e][1,2,4]thiadiazine-3-carboxamide 1,1-dioxide] | 1 µM | > 125 µM | 0.27 µM | 14.6 µM | 1.35 µM | 33.2 µM |  |  |
| COC(=O)c1ccc2c(c1)S(=O)(=O)NC(C(=O)NCC(c1ccccc1)c1ccccc1)=N2 [Example 20] | 1.25 µM | 62.8 µM | 0.49 µM | 13.8 µM | 6.05 µM | 29.5 µM |  |  |
| O=C(NCC(c1ccccc1)c1ncco1)C1=Nc2ccc(C(=O)O)cc2S(=O)(=O)N1 (stereo not drawn) [Example 24, 3-((2-(Oxazol-2-yl)-2-phenylethyl)carbamoyl)-2H-benzo[e][1,2,4]thiadiazine-7-carboxylic Acid 1,1-dioxide] | 0.583 µM |  | 0.11 µM | 5.4 µM | 0.127 µM | 7.16 µM | 0.141 µM | 69.6 µM |
| CC(=O)c1ccc2c(c1)S(=O)(=O)NC(C(=O)NCC(c1ccccc1)c1ncco1)=N2 (stereo not drawn) [Example 43, 7-acetyl-N-(2-(oxazol-2-yl)-2-phenylethyl)-2H-benzo[e][1,2,4]thiadiazine-3-carboxamide 1,1-dioxide] | 0.086 µM | 71.6 µM | 0.014 µM | 0.266 µM | 0.243 µM | 2.39 µM | 1.99 µM |  |
| O=C(NCC(c1ccccc1)c1ccccc1)C1=Nc2ccccc2S(=O)(=O)N1 [Example 68] | 0.601 µM | 16.5 µM | 0.108 µM | 7.21 µM | 3.81 µM | 14.5 µM | 0.462 µM |  |
| COC(CNC(=O)C1=Nc2ccc(I)cc2S(=O)(=O)N1)c1ccccc1 (stereo not drawn) [Example 88] |  |  |  |  |  | 1.19 µM | 0.659 µM | 47 µM |
| O=C(NCC(c1ccccc1)c1ncco1)C1=Nc2cccnc2S(=O)(=O)N1 (stereo not drawn) [Example 96] | 1.11 µM | > 125 µM | 0.149 µM | 13.3 µM | 1.17 µM | 94.7 µM | 3.17 µM |  |
| O=C(NCCc1ccccc1OC(F)(F)F)C1=Nc2ccc(Br)cc2S(=O)(=O)N1 [Example 114] |  |  |  |  | 0.861 µM | 0.954 µM | 0.529 µM | > 125 µM |
| O=C(NCCc1ccccc1O)C1=Nc2ccc(Br)cc2S(=O)(=O)N1 [Example 116] |  |  |  |  | 2.26 µM | 4.44 µM |  | 56.7 µM |
| COC(=O)NC(CNC(=O)C1=Nc2ccccc2S(=O)(=O)N1)c1ccccc1 (stereo not drawn) [Example 129] | 24.8 µM | > 125 µM | 0.25 µM | 58.3 µM |  | > 125 µM | > 125 µM |  |
| O=C(NCC(c1ccccc1)c1ncco1)C1=Nc2ccc(-c3nccs3)cc2S(=O)(=O)N1 (stereo not drawn) [Example 134] | 0.72 µM | 15.7 µM | 0.024 µM | 0.648 µM | 0.149 µM | 2.17 µM | 3.32 µM |  |
| O=C(NCC(c1ncco1)c1ccccc1I)C1=Nc2ccccc2S(=O)(=O)N1 (stereo not drawn) [Example 174, N-(2-(2-iodophenyl)-2-(oxazol-2-yl)ethyl)-2H-benzo[e][1,2,4]thiadiazine-3-carboxamide 1,1-dioxide] | 4.15 µM |  | 0.573 µM | 15.3 µM |  |  | 7.49 µM | > 125 µM |
| COC(=O)c1ccccc1C(CNC(=O)C1=Nc2ccccc2S(=O)(=O)N1)c1ncco1 (stereo not drawn) [Example 219, Methyl 2-(2-(1,1-dioxido-2H-benzo[e][1,2,4]thiadiazine-3-carboxamido)-1-(oxazol-2-yl)ethyl)benzoate] | 105 µM | > 125 µM | 3.59 µM | > 125 µM |  |  |  | > 125 µM |

Continued, values first:

| IC50 (HBO-KAT7 [1]) | IC50 (MOF-KAT8 [2]) | IC50 (MOZ-KAT6A [3]) | IC50 (TIP60-KAT5 [4]) | IC50 (MOZ-KAT6A [5]) | IC50 (TIP60-KAT5 [6]) | IC50 (HBO-KAT7 [7]) | IC50 (MOF-KAT8 [8]) | SMILES |
| --- | --- | --- | --- | --- | --- | --- | --- | --- |
| 28 µM | > 125 µM | 5.14 µM | 60.7 µM | 38.1 µM | > 125 µM |  |  | O=C(NCC(CO)c1ccccc1)C1=Nc2ccccc2S(=O)(=O)N1 (stereo not drawn) [Example 2, N-(3-Hydroxy-2-phenylpropyl)-2H-benzo[e][1,2,4]thiadiazine-3-carboxamide 1,1-dioxide] |
| 49.9 µM | 12.2 µM | 4.95 µM | 99.6 µM | 7.66 µM | 96.5 µM |  |  | O=C(NCC(CCO)c1ccccc1)C1=Nc2ccccc2S(=O)(=O)N1 (stereo not drawn) [Example 3, N-(4-Hydroxy-2-phenylbutyl)-2H-benzo[e][1,2,4]thiadiazine-3-carboxamide 1,1-dioxide] |
|  |  | 0.069 µM | 0.493 µM | 0.667 µM | 1.17 µM | 2.04 µM | 27.7 µM | O=C(NCC(c1ccccc1)c1ncco1)C1=Nc2ccc(OC(F)(F)F)cc2S(=O)(=O)N1 (stereo not drawn) [Example 5, N-(2-(Oxazol-2-yl)-2-phenylethyl)-7-(trifluoromethoxy)-2H-benzo[e][1,2,4]thiadiazine-3-carboxamide 1,1-dioxide] |
| 1.18 µM | 81.6 µM | 0.316 µM | 5.92 µM | 2.8 µM | 11.7 µM | 11.9 µM | > 125 µM | O=C(NCCc1ccccc1-c1ncco1)C1=Nc2ccccc2S(=O)(=O)N1 [Example 7, N-(2-(Oxazol-2-yl)phenethyl)-2H-benzo[e][1,2,4]thiadiazine-3-carboxamide1,1-dioxide] |
| 1.15 µM | > 125 µM | 0.308 µM | 14.1 µM | 1.72 µM | 56.6 µM |  |  | O=C(NCC(c1ccccc1)n1cccn1)C1=Nc2ccccc2S(=O)(=O)N1 (stereo not drawn) [Example 75] |
| 3.53 µM | > 125 µM | 0.203 µM | 4.54 µM | 3.74 µM | 16.7 µM | 4.56 µM |  | O=C(NCCc1ccccc1)C1=Nc2ccc(Br)cc2S(=O)(=O)N1 [Example 78] |
|  |  |  |  | 9.19 µM | 7.82 µM |  | > 125 µM | O=C(NCC(O)c1ccccc1)C1=Nc2ccc(Br)cc2S(=O)(=O)N1 (stereo not drawn) [Example 82] |
|  |  |  |  | 8.93 µM | 4.47 µM | 12 µM | 114 µM | O=C(NCC(O)c1ccccc1)C1=Nc2ccc(I)cc2S(=O)(=O)N1 (stereo not drawn) [Example 87] |
| 0.672 µM | 20.1 µM | 0.054 µM | 3.37 µM |  | 38.7 µM | 3.41 µM |  | CS(=O)(=O)Nc1ccc2c(c1)S(=O)(=O)NC(C(=O)NCC(c1ccccc1)c1ncco1)=N2 (stereo not drawn) [Example 153, 7-(Methylsulfonamido)-N-(2-(oxazol-2-yl)-2-phenylethyl)-2H-benzo[e][1,2,4]thiadiazine-3-carboxamide 1,1-dioxide] |
| 1.77 µM | > 125 µM | 0.031 µM | 6.02 µM |  |  |  | 43.1 µM | O=C(NCC(c1ccc(F)cc1)c1ncco1)C1=Nc2ccc(Cl)cc2S(=O)(=O)N1 (stereo not drawn) [Example 165] |
| 1.63 µM | > 125 µM | 0.143 µM | 13.3 µM |  |  |  | 3.75 µM | Cc1ccc(C(CNC(=O)C2=Nc3ccc(Cl)cc3S(=O)(=O)N2)c2ncco2)cc1 (stereo not drawn) [Example 170] |
| 0.161 µM | 30.4 µM | 0.011 µM | 0.651 µM |  |  | 0.051 µM | 39.1 µM | O=C(NCC(c1ccccc1)c1ccccn1)C1=Nc2ccc(Br)cc2S(=O)(=O)N1 (stereo not drawn) [Example 173] |
| 9.41 µM | > 125 µM | 0.153 µM | 16.8 µM |  |  |  | > 125 µM | N#Cc1ccccc1C(CNC(=O)C1=Nc2ccccc2S(=O)(=O)N1)c1ncco1 (stereo not drawn) [Example 218, N-(2-(2-Cyanophenyl)-2-(oxazol-2-yl)ethyl)-2H-benzo[e][1,2,4]thiadiazine-3-carboxamide 1,1-dioxide] |
| 77.3 µM |  | 12.3 µM | 39.9 µM |  |  |  | 82.5 µM | COC(=O)NC(CNC(=O)C1=Nc2ccccc2S(=O)(=O)N1)C1CCCCC1 (stereo not drawn) [Example 243, methyl (1-cyclohexyl-2-(1,1-dioxido-2H-benzo[e][1,2,4]thiadiazine-3-carboxamido)ethyl)carbamate] |
